Reference: ChEMBL document CHEMBL4145553, “Design, synthesis, and biological evaluation of novel amide and hydrazide based thioether analogs targeting Histone deacteylase (HDAC) enzymes” (Eur J Med Chem, 2018)
Active and inactive are the calls of the source. The rule behind the calls is not given here.

Columns and labels:
DU-145 [1] = assay: Growth inhibition of human DU145 cells assessed as cell growth at 10^-5 M incubated for 48 hrs by sulforhodamine B assay relative to control; assay type: functional; settings: DU-145, 48 h, read-out: Activity
UACC-62 = assay: Growth inhibition of human UACC62 cells assessed as cell growth at 10^-4 M incubated for 48 hrs by sulforhodamine B assay relative to control; assay type: functional; settings: UACC-62, 48 h, read-out: Activity
CAKI-1 [2] = assay: Growth inhibition of human Caki1 cells incubated for 48 hrs by sulforhodamine B assay; assay type: functional; settings: CAKI-1, 48 h
MDA-MB-231 = assay: Growth inhibition of human MDA-MB-231 cells assessed as cell growth at 10^-7 M incubated for 48 hrs by sulforhodamine B assay relative to control; assay type: functional; settings: MDA-MB-231, 48 h, read-out: Activity
NCI-H226 = assay: Growth inhibition of human NCI-H226 cells assessed as cell growth at 10^-6 M incubated for 48 hrs by sulforhodamine B assay relative to control; assay type: functional; settings: NCI-H226, 48 h, read-out: Activity
M14 = assay: Growth inhibition of human M14 cells assessed as cell growth at 10^-5 M incubated for 48 hrs by sulforhodamine B assay relative to control; assay type: functional; settings: M14, 48 h, read-out: Activity
SK-MEL-2 = assay: Growth inhibition of human SK-MEL-2 cells assessed as cell growth at 10^-7 M incubated for 48 hrs by sulforhodamine B assay relative to control; assay type: functional; settings: SK-MEL-2, 48 h, read-out: Activity
HCT-15 = assay: Growth inhibition of human HCT15 cells assessed as cell growth at 10^-6 M incubated for 48 hrs by sulforhodamine B assay relative to control; assay type: functional; settings: HCT-15, 48 h, read-out: Activity
OVCAR-5 = assay: Growth inhibition of human OVCAR5 cells incubated for 48 hrs by sulforhodamine B assay; assay type: functional; settings: OVCAR-5, 48 h
ACHN = assay: Growth inhibition of human ACHN cells assessed as cell growth at 10^-5 M incubated for 48 hrs by sulforhodamine B assay relative to control; assay type: functional; settings: read-out: Activity
A498 = assay: Growth inhibition of human A498 cells assessed as cell growth at 10^-4 M incubated for 48 hrs by sulforhodamine B assay relative to control; assay type: functional; settings: A498, 48 h, read-out: Activity
Hs-578T = assay: Growth inhibition of human Hs 578T cells incubated for 48 hrs by sulforhodamine B assay; assay type: functional
MDA-MB-435 [3] = assay: Induction of apoptosis in human MDA-MB-435 cells assessed as increase in gammaH2ax expression by qRT-PCR method; assay type: functional, cell-based
HCT-116 = assay: Growth inhibition of human HCT116 cells incubated for 48 hrs by sulforhodamine B assay; assay type: functional; settings: HCT-116, 48 h
K562 = assay: Growth inhibition of human K562 cells assessed as cell growth at 10^-4 M incubated for 48 hrs by sulforhodamine B assay relative to control; assay type: functional; settings: K562, 48 h, read-out: Activity
OVCAR-8 = assay: Growth inhibition of human OVCAR8 cells assessed as cell growth at 10^-7 M incubated for 48 hrs by sulforhodamine B assay relative to control; assay type: functional; settings: OVCAR-8, 48 h, read-out: Activity
NCI-H322M = assay: Growth inhibition of human NCI-H322M cells assessed as cell growth at 10^-4 M incubated for 48 hrs by sulforhodamine B assay relative to control; assay type: functional; settings: read-out: Activity
TK-10 = assay: Growth inhibition of human TK10 cells assessed as cell growth at 10^-8 M incubated for 48 hrs by sulforhodamine B assay relative to control; assay type: functional; settings: TK-10, 48 h, read-out: Activity
KM12 = assay: Growth inhibition of human KM12 cells assessed as cell growth at 10^-8 M incubated for 48 hrs by sulforhodamine B assay relative to control; assay type: functional; settings: KM12, 48 h, read-out: Activity
CCRF-CEM = assay: Growth inhibition of human CCRF-CEM cells incubated for 48 hrs by sulforhodamine B assay; assay type: functional
OVCAR-4 = assay: Growth inhibition of human OVCAR4 cells incubated for 48 hrs by sulforhodamine B assay; assay type: functional; settings: OVCAR-4, 48 h
U-251 = assay: Growth inhibition of human U251 cells assessed as cell growth at 10^-8 M incubated for 48 hrs by sulforhodamine B assay relative to control; assay type: functional; settings: U-251, 48 h, read-out: Activity
MDA-MB-435 [4] = assay: Downregulation of HDAC2 mRNA expression in human MDA-MB-435 cells by qRT-PCR method relative to control; assay type: functional
UO-31 = assay: Growth inhibition of human UO31 cells incubated for 48 hrs by sulforhodamine B assay; assay type: functional; settings: UO-31, 48 h
HL-60 = assay: Downregulation of HDAC8 mRNA expression in human HL60 cells by qRT-PCR method; assay type: functional, cell-based
SF-539 = assay: Growth inhibition of human SF539 cells assessed as cell growth at 10^-4 M incubated for 48 hrs by sulforhodamine B assay relative to control; assay type: functional; settings: SF-539, 48 h, read-out: Activity
CAKI-1 [5] = assay: Growth inhibition of human Caki1 cells assessed as cell growth at 10^-5 M incubated for 48 hrs by sulforhodamine B assay relative to control; assay type: functional; settings: CAKI-1, 48 h, read-out: Activity
DU-145 [6] = assay: Growth inhibition of human DU145 cells assessed as cell growth at 10^-4 M incubated for 48 hrs by sulforhodamine B assay relative to control; assay type: functional; settings: DU-145, 48 h, read-out: Activity
NCI-H460 = assay: Growth inhibition of human NCI-H460 cells assessed as cell growth at 10^-7 M incubated for 48 hrs by sulforhodamine B assay relative to control; assay type: functional; settings: NCI-H460, 48 h, read-out: Activity
[7] = read-out: LC50 (the source's name)
[8] = read-out: pLC50 (the source's name) (converted)

CCS/C(Nc1ccccc1)=C(\C#N)C(=O)N/N=C\c1ccc(Cl)cc1Cl
growth at 10 µM (DU-145 [1]): 12%
growth at 100 µM (UACC-62): 12%
GI50 (CAKI-1 [2]; read-out: GI50): 2.39 µM
CC50 (CAKI-1 [2]; [7]): > 100 µM
TGI (CAKI-1 [2]; read-out: TGI): > 100 µM
GI50 (CAKI-1 [2]; read-out: pGI50 (converted)): 2.4 µM
CC50 (CAKI-1 [2]; [8]): > 100 µM
TGI (CAKI-1 [2]; read-out: pTGI): > 100 µM
growth at 0.1 µM (MDA-MB-231): 97%
growth at 1 µM (NCI-H226): 85%
growth at 10 µM (M14): -1%
growth at 0.1 µM (SK-MEL-2): 101%
growth at 1 µM (HCT-15): 77%
GI50 (OVCAR-5; read-out: GI50): 8.25 µM
CC50 (OVCAR-5; [7]): > 100 µM
TGI (OVCAR-5; read-out: TGI): > 100 µM
GI50 (OVCAR-5; read-out: pGI50 (converted)): 8.32 µM
CC50 (OVCAR-5; [8]): > 100 µM
TGI (OVCAR-5; read-out: pTGI): > 100 µM
growth at 10 µM (ACHN): 43%
growth at 100 µM (A498): -2%
GI50 (Hs-578T; read-out: GI50): 2.74 µM
CC50 (Hs-578T; [7]): > 100 µM
TGI (Hs-578T; read-out: TGI): 98.7 µM
GI50 (Hs-578T; read-out: pGI50 (converted)): 2.75 µM
CC50 (Hs-578T; [8]): > 100 µM
TGI (Hs-578T; read-out: pTGI (converted)): 97.7 µM
Activity (MDA-MB-435 [3]): Active
GI50 (HCT-116; read-out: GI50): 2.99 µM
CC50 (HCT-116; [7]): > 100 µM
TGI (HCT-116; read-out: TGI): > 100 µM
GI50 (HCT-116; read-out: pGI50 (converted)): 3.02 µM
CC50 (HCT-116; [8]): > 100 µM
TGI (HCT-116; read-out: pTGI (converted)): > 100 µM
growth at 100 µM (K562): 7%
growth at 0.1 µM (OVCAR-8): 96%
growth at 100 µM (NCI-H322M): 32%
growth at 0.01 µM (TK-10): 93%
growth at 0.01 µM (KM12): 101%
GI50 (CCRF-CEM; read-out: GI50): 3.07 µM
CC50 (CCRF-CEM; [7]): > 100 µM
TGI (CCRF-CEM; read-out: TGI): > 100 µM
GI50 (CCRF-CEM; read-out: pGI50 (converted)): 3.09 µM
CC50 (CCRF-CEM; [8]): > 100 µM
TGI (CCRF-CEM; read-out: pTGI): > 100 µM
GI50 (OVCAR-4; read-out: GI50): 6.57 µM
CC50 (OVCAR-4; [7]): > 100 µM
TGI (OVCAR-4; read-out: TGI): > 100 µM
GI50 (OVCAR-4; read-out: pGI50 (converted)): 6.61 µM
CC50 (OVCAR-4; [8]): > 100 µM
TGI (OVCAR-4; read-out: pTGI): > 100 µM
growth at 0.01 µM (U-251): 101%
fold change (FC) (MDA-MB-435 [4]): <=10
GI50 (UO-31; read-out: GI50): 6.91 µM
CC50 (UO-31; [7]): > 100 µM
TGI (UO-31; read-out: TGI): > 100 µM
GI50 (UO-31; read-out: pGI50 (converted)): 6.92 µM
CC50 (UO-31; [8]): > 100 µM
TGI (UO-31; read-out: pTGI): > 100 µM
Activity (HL-60): Active
growth at 100 µM (SF-539): -6%
growth at 10 µM (CAKI-1 [5]): 23%
growth at 100 µM (DU-145 [6]): 8%
growth at 0.1 µM (NCI-H460): 98%

CCS/C(Nc1ccccc1)=C(\C#N)C(=O)Nc1ccc(OC)cc1
growth at 10 µM (DU-145 [1]): 13%
growth at 100 µM (UACC-62): 6%
GI50 (CAKI-1 [2]; read-out: GI50): 3.39 µM
CC50 (CAKI-1 [2]; [7]): > 100 µM
TGI (CAKI-1 [2]; read-out: TGI): > 100 µM
GI50 (CAKI-1 [2]; read-out: pGI50 (converted)): 3.39 µM
CC50 (CAKI-1 [2]; [8]): > 100 µM
TGI (CAKI-1 [2]; read-out: pTGI): > 100 µM
growth at 0.1 µM (MDA-MB-231): 94%
growth at 1 µM (NCI-H226): 88%
growth at 10 µM (M14): 10%
growth at 0.1 µM (SK-MEL-2): 102%
growth at 1 µM (HCT-15): 53%
GI50 (OVCAR-5; read-out: GI50): 5.52 µM
CC50 (OVCAR-5; [7]): > 100 µM
TGI (OVCAR-5; read-out: TGI): > 100 µM
GI50 (OVCAR-5; read-out: pGI50 (converted)): 5.5 µM
CC50 (OVCAR-5; [8]): > 100 µM
TGI (OVCAR-5; read-out: pTGI): > 100 µM
growth at 10 µM (ACHN): 33%
growth at 100 µM (A498): -12%
GI50 (Hs-578T; read-out: GI50): 4.07 µM
CC50 (Hs-578T; [7]): > 100 µM
TGI (Hs-578T; read-out: TGI): > 100 µM
GI50 (Hs-578T; read-out: pGI50 (converted)): 4.07 µM
CC50 (Hs-578T; [8]): > 100 µM
TGI (Hs-578T; read-out: pTGI (converted)): > 100 µM
Activity (MDA-MB-435 [3]): Active
GI50 (HCT-116; read-out: GI50): 1.95 µM
CC50 (HCT-116; [7]): > 100 µM
TGI (HCT-116; read-out: TGI): 16.4 µM
GI50 (HCT-116; read-out: pGI50 (converted)): 1.95 µM
CC50 (HCT-116; [8]): > 100 µM
TGI (HCT-116; read-out: pTGI (converted)): 16.6 µM
growth at 100 µM (K562): 10%
growth at 0.1 µM (OVCAR-8): 99%
growth at 100 µM (NCI-H322M): 37%
growth at 0.01 µM (TK-10): 104%
growth at 0.01 µM (KM12): 100%
GI50 (CCRF-CEM; read-out: GI50): 1.83 µM
CC50 (CCRF-CEM; [7]): > 100 µM
TGI (CCRF-CEM; read-out: TGI): > 100 µM
GI50 (CCRF-CEM; read-out: pGI50 (converted)): 1.82 µM
CC50 (CCRF-CEM; [8]): > 100 µM
TGI (CCRF-CEM; read-out: pTGI): > 100 µM
GI50 (OVCAR-4; read-out: GI50): 7.61 µM
CC50 (OVCAR-4; [7]): > 100 µM
TGI (OVCAR-4; read-out: TGI): > 100 µM
GI50 (OVCAR-4; read-out: pGI50 (converted)): 7.59 µM
CC50 (OVCAR-4; [8]): > 100 µM
TGI (OVCAR-4; read-out: pTGI): > 100 µM
growth at 0.01 µM (U-251): 97%
fold change (FC) (MDA-MB-435 [4]): <=10
GI50 (UO-31; read-out: GI50): 5.49 µM
CC50 (UO-31; [7]): > 100 µM
TGI (UO-31; read-out: TGI): > 100 µM
GI50 (UO-31; read-out: pGI50 (converted)): 5.5 µM
CC50 (UO-31; [8]): > 100 µM
TGI (UO-31; read-out: pTGI): > 100 µM
Activity (HL-60): Active
growth at 100 µM (SF-539): -54%
growth at 10 µM (CAKI-1 [5]): 29%
growth at 100 µM (DU-145 [6]): -6%
growth at 0.1 µM (NCI-H460): 98%
